We go through six compounds from publication PMC8549260, “Crude extract and isolated bioactive compounds from Notholirion thomsonianum (Royale) Stapf as multitargets antidiabetic agents: in-vitro and molecular docking approaches” (BMC Complementary Medicine and Therapies, 2021).

In general, inhibition refers to the percentage by which the read-out fell short of the control. As a reminder, the IC50 is the concentration needed to halve the response being measured. High values mean weaker potency, low ones greater potency.

Where two headings read alike, the source gives them in different places.

Test [1] addresses Yeast α-Glucosidase (Saccharomyces cerevisiae, UniProt P53341). The experiment in a line: biochemical. Particulars: for IC50: α-Glucosidase IC50, Table 3, isolated compounds series. The protocol:
In 0.10 M of phosphate buffer having pH of 6.90, the α-glucosidase enzyme solution was prepared (0.50 U/ mL). […] The same solution without the enzyme was used as a blank. The absorbances were recorded at 405 nm. All the experiments were repeated in triplicate. The percent inhibitions and subsequent IC50 (in μg/mL and also in μM) were calculated accordingly. […]

Test [2] addresses T1, α-amylase (Homo sapiens, UniProt P04746).
T1 sequence (P04746 16-511): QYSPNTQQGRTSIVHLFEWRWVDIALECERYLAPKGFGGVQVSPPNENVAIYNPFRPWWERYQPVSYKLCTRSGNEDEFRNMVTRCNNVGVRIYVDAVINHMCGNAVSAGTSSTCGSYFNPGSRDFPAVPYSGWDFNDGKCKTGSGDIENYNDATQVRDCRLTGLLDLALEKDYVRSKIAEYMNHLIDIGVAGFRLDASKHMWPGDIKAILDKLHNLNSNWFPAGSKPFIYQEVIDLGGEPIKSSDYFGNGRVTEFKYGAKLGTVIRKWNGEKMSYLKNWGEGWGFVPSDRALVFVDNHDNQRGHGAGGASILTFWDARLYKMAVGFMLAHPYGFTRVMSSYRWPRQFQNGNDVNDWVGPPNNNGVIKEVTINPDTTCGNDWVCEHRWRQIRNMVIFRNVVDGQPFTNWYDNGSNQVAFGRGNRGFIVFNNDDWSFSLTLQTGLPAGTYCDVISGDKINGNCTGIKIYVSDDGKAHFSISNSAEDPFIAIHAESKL
The experiment in a line: In-vitro α-amylase inhibition. Type of test: biochemical. Particulars: for IC50: Table 3, isolated compounds series. The protocol:
The amylase solution was prepared in phosphate buffer followed by addition of different concentrations of plant extracts and isolated compounds. The solutions of test samples in enzyme solution were allowed to react. The solutions were incubated for a specific temperature and were added starch solution. Afterwards, a solution of dinitrosalicylic acid was added to both of the groups, i.e. sample and control solution groups. The solutions were then allowed to heat up in boiling water for a few min. […] The experiments were performed in triplicates and percent inhibitions were calculated as per the reported formula. […]

Test [3] can be described thus: ABTS free radicals scavenging assay. As to conditions: for ABTS Assay % Scavenging (mean ± SEM): n = 3. The protocol:
Plant crude samples were also evaluated against ABTS free radicals using standard protocol. In this protocols, 7 mM solution of ABTS and 2.45 mM of potassium per sulfate were mixed and kept in dark at laboratory temperature for around 16 h till the color become dark. Solution of 0.01 M of phosphate buffer having pH 7.40 was mixed with it and absorbance was adjusted at 0.70 at 734 nm. Afterwards, solution of the plant extracts (300 μl) was added to ABTS solution (3 mL) and absorbance was recorded at 734 nm. Mixed the solution for 1 min and reduction in absorbance was recorded. The mixing and reduction were repeated for 6 min. The experiments were performed three times. The percent inhibitions and subsequent IC50 values of samples and standard ascorbic acid were calculated as per the standard procedure.

Test [4] in a line: DPPH free radicals scavenging assay. As to conditions: for DPPH Assay % Scavenging (mean ± SEM) / DPPH Percent Inhibition (mean ± SEM): n = 3. As for the experimental part: Plant samples solutions were prepared ranging from 125 to 1000 μg/ mL and were added to 0.004% methanolic solution of DPPH. Subsequent to 30 min incubation, absorbances were measured at 517 nm.
In free radicals’ assays including DPPH, ABTS and H2O2, the IC50s were calculated using same method.
For orientation: DPPH is a stable violet radical that fades when it is reduced.

The nature of test [5]: H2O2 free radicals scavenging assay. As to conditions: n = 3. As for the experimental part: This method was used to determine the antioxidant potentials of crude extracts from N. thomsonianum. A solution of H2O2 (2 mM) was prepared in buffer solution of phosphate (50 mM, pH 7.40). In a test tube, 0.10 mL of crude extract was measured, and the volume was diluted to 0.40 mL by adding the phosphate buffer. Then 0.60 mL solution of H2O2 was added to it and was mixed properly. The absorbance of the crude sample and standard were recorded on 230 nm. The same procedure was repeated for all the crude samples.

The target of test [6] is T2, PTP1B (Homo sapiens, UniProt P18031).
T2 sequence (P18031 1-435): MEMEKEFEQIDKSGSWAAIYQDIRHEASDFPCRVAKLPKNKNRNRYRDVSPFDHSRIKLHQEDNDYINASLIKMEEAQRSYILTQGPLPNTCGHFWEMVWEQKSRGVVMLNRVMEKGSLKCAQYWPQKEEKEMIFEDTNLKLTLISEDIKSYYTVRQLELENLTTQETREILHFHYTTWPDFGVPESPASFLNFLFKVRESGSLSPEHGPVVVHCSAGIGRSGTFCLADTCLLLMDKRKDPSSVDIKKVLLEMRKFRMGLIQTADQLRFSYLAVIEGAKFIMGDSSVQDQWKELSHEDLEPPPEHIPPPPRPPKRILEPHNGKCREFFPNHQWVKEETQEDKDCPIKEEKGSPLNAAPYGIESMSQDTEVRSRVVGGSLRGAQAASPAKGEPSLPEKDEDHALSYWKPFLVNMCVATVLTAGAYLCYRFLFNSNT
Description: Protein tyrosine phosphatase 1B inhibition. The format is biochemical. The protocol:
The solutions were then incubated for 40 min at 27 °C and absorbances were recorded at 405 nm using microplate reader. The experiments were repeated three times and percent inhibitions followed by IC50 values were recorded accordingly.

Setting [7] is: read-out: Alpha glucosidase Percent Inhibition (mean ± SEM).
[8] abbreviates: read-out: α-Glucosidase Percent Inhibition (mean ± SEM).
The mark [9] stands for this setting: read-out: Alpha amylase Percent Inhibition (mean ± SEM).
Where [10] appears, read: read-out: α-Amylase Percent Inhibition (mean ± SEM).
Where [11] appears, read: read-out: PTP1B Percent Inhibition (mean ± SEM).
Setting [12] is: 125 μg/mL, n = 3, read-out: PTP1B Percent Inhibition (mean ± SEM) (converted).
Setting [13] is: 250 μg/mL, n = 3, read-out: PTP1B Percent Inhibition (mean ± SEM) (converted).
The mark [14] stands for this setting: 500 μg/mL, n = 3, read-out: PTP1B Percent Inhibition (mean ± SEM).
[15] abbreviates: Table 3, 125 μg/mL, n = 3, read-out: α-Amylase Percent Inhibition (mean ± SEM) (converted).
[16] abbreviates: Table 3, 250 μg/mL, n = 3, read-out: α-Amylase Percent Inhibition (mean ± SEM) (converted).
[17] abbreviates: Table 3, 500 μg/mL, n = 3, read-out: α-Amylase Percent Inhibition (mean ± SEM).

Yeast α-Glucosidase, sequence (P53341 whole entry): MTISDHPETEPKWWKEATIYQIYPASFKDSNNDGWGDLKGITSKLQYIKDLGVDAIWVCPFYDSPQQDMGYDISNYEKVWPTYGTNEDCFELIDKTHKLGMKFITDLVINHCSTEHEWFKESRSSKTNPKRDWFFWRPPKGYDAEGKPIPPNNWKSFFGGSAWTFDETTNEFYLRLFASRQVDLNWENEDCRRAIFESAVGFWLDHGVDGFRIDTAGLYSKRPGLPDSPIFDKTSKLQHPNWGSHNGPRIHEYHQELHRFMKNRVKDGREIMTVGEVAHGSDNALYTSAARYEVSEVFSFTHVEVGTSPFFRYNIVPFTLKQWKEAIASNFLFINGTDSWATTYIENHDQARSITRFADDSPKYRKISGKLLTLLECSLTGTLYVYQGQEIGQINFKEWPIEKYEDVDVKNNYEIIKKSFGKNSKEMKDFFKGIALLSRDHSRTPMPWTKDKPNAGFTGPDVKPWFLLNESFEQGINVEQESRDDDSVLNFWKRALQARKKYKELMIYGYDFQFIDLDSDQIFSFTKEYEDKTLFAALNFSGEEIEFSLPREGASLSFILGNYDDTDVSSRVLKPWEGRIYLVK

Turning to `C[C@H]1O[C@H](O[C@H]2[C@H](O)[C@@H](O)[C@@H](O[C@H]3[C@H](O)[C@@H](O)C(O)O[C@@H]3CO)O[C@@H]2CO)[C@H](O)[C@@H](O)[C@@H]1N[C@H]1C=C(CO)[C@@H](O)[C@H](O)[C@H]1O` (some centres unmarked) [Acarbose, reference compound], in test [1] (setting [7]), the inhibition at 125 µg/mL is 61.5%, the inhibition at 250 µg/mL was 67.5%, the inhibition at 500 µg/mL was 73.9% and the inhibition at 1000 µg/mL amounted to 76.87 ± 0.06%. Also, in test [1] (setting [8]), the inhibition at 125 µg/mL is 77.6%, the inhibition at 250 µg/mL is 82.4% and the inhibition at 500 µg/mL worked out at 87.08 ± 0.47%. Moreover, in test [2] (setting [9]), the inhibition at 125 µg/mL was 64.5%, the inhibition at 250 µg/mL is 69%, the inhibition at 500 µg/mL was 71.7% and the inhibition at 1000 µg/mL was 78.63 ± 0.54%. In test [2] (setting [10]), the inhibition at 125 µg/mL was 83.9%, the inhibition at 250 µg/mL was 89.5% and the inhibition at 500 µg/mL worked out at 95.23 ± 0.22%.

For `O=C1O[C@H]([C@@H](O)CO)C(O)=C1O` [AA, Ascorbic acid], in test [3], the “ABTS Assay IC50” value was < 0.1 µg/mL. In addition, the “ABTS Assay % Scavenging (mean ± SEM)” value in test [3] (125 μg/mL) was 78.46 ± 0.58%; in test [3] (250 μg/mL), 80.43 ± 0.55%; in test [3] (500 μg/mL), 86.53 ± 0.60%; in test [3] (1000 μg/mL), 87.60 ± 0.40%. The “DPPH Assay % Scavenging (mean ± SEM)” value in test [4] (Table 2, 125 μg/mL) came out at 76.54 ± 0.54%; in test [4] (Table 2, 250 μg/mL), 81.33 ± 0.88%; in test [4] (Table 2, 500 μg/mL), 87.84 ± 0.26%; in test [4] (Table 2, 1000 μg/mL), 92.55 ± 0.35%. Moreover, the “DPPH Assay IC50” value in test [4] (Table 2, crude extracts series) was < 0.1 µg/mL. The “DPPH Percent Inhibition (mean ± SEM)” value in test [4] (Table 4, 125 μg/mL) was determined as 85.20 ± 0.49%; in test [4] (Table 4, 250 μg/mL), 88.47 ± 0.71%; in test [4] (Table 4, 500 μg/mL) it was 91.75 ± 0.42%. In addition, the “H2O2 Assay % Scavenging (mean ± SEM)” value in test [5] (125 μg/mL) came to 68.00 ± 0.57%; in test [5] (250 μg/mL), 71.50 ± 0.60%; in test [5] (500 μg/mL) it was 74.66 ± 0.49%; in test [5] (1000 μg/mL), 83.33 ± 0.88%.

`CCCC/C=C/C=O` [Nt02]: the inhibition at 125 µg/mL in test [1] (setting [8]) was 66.9%; in test [6] (setting [11]), 85.8%; in test [2] (setting [10]), 78.4%. Moreover, the inhibition at 250 µg/mL in test [1] (setting [8]) was 71.1%; in test [6] (setting [11]), 90.9%; in test [2] (setting [10]), 85.3%. The inhibition at 500 µg/mL in test [1] (setting [8]) amounted to 76.8 ± 2.24%; in test [6] (setting [11]), 93.03 ± 0.48%; in test [2] (setting [10]), 91.36 ± 0.49%. In addition, the IC50 in test [1], in test [1] (based on molecular weight), in test [6], in test [6] (based on molecular weight), in test [2] and in test [2] (based on molecular weight) was < 279 µM throughout. Moreover, the “DPPH Percent Inhibition (mean ± SEM)” value in test [4] (Table 4, 125 μg/mL) turned out to be 74.78 ± 0.44%; in test [4] (Table 4, 250 μg/mL), 79.32 ± 0.40%; in test [4] (Table 4, 500 μg/mL), 86.60 ± 0.00%.

In the case of `CC(C)=CC(=O)CC(C)c1ccc(C)cc1` (centres unmarked) [Nt01], the inhibition at 125 µg/mL in test [1] (setting [8]) was 44.4%; in test [6] (setting [12]) it was 83.4%; in test [2] (setting [15]), 67.9%. Besides, the inhibition at 250 µg/mL was 51.9% in test [1] (setting [8]), 88.7% in test [6] (setting [13]) and 72.1% in test [2] (setting [16]). The inhibition at 500 µg/mL in test [1] (setting [8]) is 55.6 ± 1.06%; in test [6] (setting [14]), 90.09 ± 0.32%; in test [2] (setting [17]), 77.8 ± 2.24%. For the same compound, the “DPPH Percent Inhibition (mean ± SEM)” value stood at 79.62 ± 0.03% in test [4] (Table 4, 125 μg/mL); 84.36 ± 1.15% in test [4] (Table 4, 250 μg/mL); 88.35 ± 0.89% in test [4] (Table 4, 500 μg/mL). Further, the IC50 was < 144 µM in test [6], < 145 µM in test [6] (based on molecular weight), < 144 µM in test [2] and < 145 µM in test [2] (based on molecular weight).

As to `Cc1c(C)c2c(c(C)c1O)CCC(C)(CCCC(C)CCCC(C)CCCC(C)C)O2` (centres unmarked) [Nt03], the values for the inhibition at 125 µg/mL in test [1] (setting [8]), in test [6] (setting [12]) and in test [2] (setting [15]) were 70.6%, 82.3% and 80.6%, respectively. For the same compound, the inhibition at 250 µg/mL in test [1] (setting [8]) was 73.4%; in test [6] (setting [13]), 87.2%; in test [2] (setting [16]) it was 86.5%. Also, the inhibition at 500 µg/mL was 78.35 ± 0.23% in test [1] (setting [8]), 90.83 ± 0.47% in test [6] (setting [14]) and 93.1 ± 1.04% in test [2] (setting [17]). The concentration for half-maximal inhibition (IC50) in test [1] was < 72.6 µM; in test [1] (based on molecular weight), < 72.7 µM; in test [6], < 72.6 µM; in test [6] (based on molecular weight), < 72.7 µM; in test [2] it was < 72.6 µM; in test [2] (based on molecular weight), < 72.7 µM. Also, the “DPPH Percent Inhibition (mean ± SEM)” value turned out to be 84.44 ± 0.15% in test [4] (Table 4, 125 μg/mL); 87.14 ± 0.49% in test [4] (Table 4, 250 μg/mL); 90.69 ± 0.14% in test [4] (Table 4, 500 μg/mL).

Take `C[C@H]1[C@H](C)CC[C@]2(C(=O)O)CC[C@]3(C)C(=CC[C@@H]4[C@@]5(C)CC[C@H](O)C(C)(C)[C@@H]5CC[C@]43C)[C@H]12` [Ursolic acid, reference compound]: in test [6] (setting [12]), the inhibition at 125 µg/mL is 91.5%. For the same compound, the inhibition at 250 µg/mL in test [6] (setting [13]) is 93.6%. The inhibition at 500 µg/mL in test [6] (setting [14]) came out at 98.7 ± 1.32%.
